Experimental data from US8609724B2, “Method of treating cancer using dichloroacetate” (priority 2005, dated 2013).
“Also recorded” adds a separate entry of the source.

Experiments:
[1] = system: NFAT; assay: NFAT and Kv1.5 confocal imaging; assay type: cell-based, human; conditions: A549 cells
Protocol: Imaging was performed using a Zeiss LSM 510 confocal microscope as described. Apoptag apoptosis detection kit (TUNEL stain, Serologicals, Norcross, Ga.) and the proliferating cell nuclear antigen (PCNA) antibody (DAKO, Carpinteria, Calif.) were used as per manufacturer's instructions on both formaldehyde fixed cells and paraffin-embedded tissue sections after antigen retrieval. Nuclear staining was made using 4′,6′-diamidino-2-phenylindole dihydrochloride (DAPI, 300 nM; Molecular Probes) in fixed tissue or cells as previously described Apoalert Annexin V kit (Clontech, Palo Alto, Calif.), cytochrome c antibody (Pharmingen, San Diego, Calif.), Apoptosis inducing factor (Santa Cruz Calif. USA) NFAT and Kv1.5 (Sigma) and mitotracker red (500 nM, Molecular Probes) were used as described by the company instructions. Mitochondrial membrane potential (ΔΨm) was studied in live cancer cultured cells, using tetramethylrhodamine methyl-ester perchlorate (TMRM) (20 nmol/L) for 30 minutes (37° C.) and Hoechst (1.0 umol/L) nuclear staining for 10 minutes (Molecular Probes, Canada).

[2] = system: cancer cells; assay: Free cytosolic calcium (fluo-3, confocal); assay type: cell-based, human; conditions: treated vs control cells

OO [H2O2]
Kv1.5 expression (confocal immunostaining) [1]: increased Kv1.5 expression | NFAT activation (nuclear localization) [1]: blocked the activation of NFAT | free cytosolic calcium concentration [2]: decreases the intracellular Ca++ levels; also recorded: Control cells had more calcium than both DCA and H2O2 treated cells
